From patent US20120004244A1, “Bis Aromatic Compounds for Use as LTC4 Synthase Inhibitors” (BIOLIPOX AB, priority 2009, published 2012)

Target: T1, Recombinant human LTC4 synthase (Homo sapiens, UniProt Q16873)
T1 construct: made in house; host or cells: Pichia pastoris ('Piccia pastoralis' [sic])
T1 sequence (Q16873 1-150): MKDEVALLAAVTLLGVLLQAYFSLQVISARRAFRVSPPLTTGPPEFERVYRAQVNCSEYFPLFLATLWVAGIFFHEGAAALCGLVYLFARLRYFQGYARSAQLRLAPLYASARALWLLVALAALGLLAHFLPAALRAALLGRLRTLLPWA
Test: LTC4 synthase in vitro assay (LTA4 to LTC4, HTRF detection)
Assay type: biochemical
Conditions: for inhibition at 10 µM: 5 min, total concentration of title compound in the assay 10 μM
Protocol: In the assay, LTC4 synthase catalyses the reaction where the substrate LTA4 is converted to LTC4. Recombinant human LTC4 synthase is expressed in Piccia pastoralis and the purified enzyme is dissolved in 25 mM tris-buffer pH 7.8 supplemented with 0.1 mM glutathione (GSH) and stored at −80° C. The assay is performed in phosphate buffered saline (PBS) pH 7.4 and 5 mM GSH in 384-well plates.
The following is added chronologically to each well:
1.48 μL LTC4 synthase in PBS with 5 mM GSH. The total protein concentration in this solution is 0.5 μg/mL. 2. 1 μL inhibitor in DMSO (final concentration 10 μM). 3. Incubation of the plate at room temperature for 10 min. 4. 1 μL LTA4 (final concentration 2.5 μM). 5. Incubation of the plate at room temperature for 5 min. 6. 10 μL of the incubation mixture is analysed using homogenous time resolved fluorescent (HTRF) detection.

SMILES: CN(c1ccc(Cl)cc1)c1ccc(C(=O)c2ccc(-c3ccccc3C(F)(F)F)c(C(=O)O)c2)nc1 [21:1, 4-{5-[(4-Chlorophenyl)methylamino]pyridine-2-carbonyl}-2′-trifluoromethyl-biphenyl-2-carboxylic acid]
- IC50: 138 nM

SMILES: O=C(c1ccc(Oc2ccccc2)c(C(=O)O)c1)c1ccc(OCc2cccc(C(F)(F)F)c2)cn1 [11:5, 2-Phenoxy-5-[5-(3-trifluoromethylbenzyloxy)picolinoyl]benzoic acid]
- IC50: 181 nM

SMILES: O=C(c1ccc(-n2nncc2-c2ccccc2)c(C(=O)O)c1)c1ccc(N(CC2CC2)c2ccc(Cl)cc2)cn1 [17:3, 5-{5-[(4-Chlorophenyl)(cyclopropylmethyl)amino]picolinoyl}-2-(5-phenyl-1,2,3-triazol-1-yl)benzoic acid]
- IC50: 45 nM
- inhibition at 10 µM: 100%

SMILES: CN(c1ccc(C(C)(C)C)cc1)c1ccc(C(=O)c2ccc(Oc3ccccc3)c(C(=O)O)c2)nc1 [1:17, 5-{5-[(4-tert-Butylphenyl)(methyl)amino]picolinoyl}-2-phenoxybenzoic acid]
- IC50: 1310 nM
- inhibition at 10 µM: 96%

SMILES: O=C(c1ccc(Oc2ccccc2)c(C(=O)O)c1)c1ccc(-c2cccc(Cl)c2)cn1 [7:1, 5-[5-(3-Chlorophenyl)picolinoyl]-2-phenoxybenzoic acid]
- IC50: 1110 nM

SMILES: COc1cccc(COc2ccc(C(=O)c3ccc(N(C)c4ccc(Cl)cc4)cn3)cc2C(=O)O)c1 [12:6, 5-{5-[(4-Chlorophenyl)(methyl)amino]picolinoyl}-2-(3-methoxybenzyloxy)-benzoic acid]
- IC50: 219 nM

SMILES: O=C(c1ccc(Oc2ccccc2Oc2ccccc2Cl)c(C(=O)O)c1)c1ccc(N(CC2CC2)c2ccc(Cl)cc2)cn1 [1:45, 2-[2-(2-Chlorophenoxy)phenoxy]-5-{5-[(4-chlorophenyl)(cyclopropylmethyl)amino]picolinoyl}benzoic acid]
- IC50: 32 nM

SMILES: O=C(c1ccc(-n2nncc2-c2cccc(Cl)c2)c(C(=O)O)c1)c1ccc(N(CC2CC2)c2ccc(Cl)cc2)cn1 [17:4, 5-{5-[(4-Chlorophenyl)(cyclopropylmethyl)amino]picolinoyl}-2-(5-(3-chlorophenyl)-1,2,3-triazol-1-yl)benzoic acid]
- IC50: 16 nM

SMILES: CN(c1ccc(Cl)cc1)c1ccc(C(=O)c2ccc(Oc3ccccc3[S+](C)[O-])c(C(=O)O)c2)nc1 (stereo not shown) [1:47, 5-{5-[(4-Chlorophenyl)(methyl)amino]picolinoyl}-2-(2-methylsulfinylphenoxy)-benzoic acid]
- IC50: 1030 nM
- inhibition at 10 µM: 88%

SMILES: COc1ccc(C(=O)Nc2ccc(C(=O)c3ccc(N(C)c4ccc(Cl)cc4)cn3)cc2C(=O)O)c(OC)c1 [3:13, 5-{5-[(4-Chlorophenyl)(methyl)amino]picolinoyl}-2-(2,4-dimethoxy-benzamido)benzoic acid]
- IC50: 23 nM

SMILES: CN(c1ccc(Cl)cc1)c1ccc(C(=O)c2ccc(OCc3ccccc3Cl)c(C(=O)O)c2)nc1 [12:2, 2-(2-Chlorobenzyloxy)-5-{5-[(4-chlorophenyl)(methyl)amino]picolinoyl}benzoic acid]
- IC50: 184 nM

SMILES: CN(c1ccc(Cl)cc1)c1ccc(C(=O)c2ccc(OCc3ccc(F)c(F)c3)c(C(=O)O)c2)nc1 [12:4, 5-{5-[(4-Chlorophenyl)(methyl)amino]picolinoyl}-2-(3,4-difluorobenzyloxy)-benzoic acid]
- IC50: 150 nM

SMILES: O=C(c1ccc(Oc2ccccc2)c(C(=O)O)c1)c1ccc(OCc2cccc(Cl)c2)cn1 [11:1, 5-[5-(3-Chlorobenzyloxy)picolinoyl]-2-phenoxybenzoic acid]
- IC50: 143 nM

SMILES: COc1cc(OC)cc(Oc2ccc(C(=O)c3ccc(N(CC4CC4)c4ccc(Cl)cc4)cn3)cc2C(=O)O)c1 [1:39, 5-{5-[(4-Chlorophenyl)(cyclopropylmethyl)amino]picolinoyl}-2-(3,5-dimethoxyphenoxy)benzoic acid]
- IC50: 70 nM

SMILES: CCN(c1ccc(C(=O)c2ccc(Oc3ccccc3)c(C(=O)O)c2)nc1)c1cccc(C(F)(F)F)c1 [1:12, 5-{5-[(Ethyl)(3-trifluoromethylphenyl)amino]picolinoyl}-2-phenoxybenzoic acid]
- IC50: 247 nM
- inhibition at 10 µM: 100%
